# Earlier results in US20110195988A1, “Pharmaceutical Composition” (Special Products Limited, priority 2010, published 2011).
# Conditions: oral formulations of morphine
smiles,measurement,value
CN1CC[C@]23c4c5ccc(O)c4O[C@H]2[C@@H](O)C=C[C@H]3[C@H]1C5 [morphine],time after administration at which the analgesic effect is observed,around 30 minutes
